These results are taken from PMC11035592, “Intranasal oxytocin suppresses seizure-like behaviors in a mouse model of NGLY1 deficiency” (Communications Biology, 2024).

Series [1] concerns patients with NGLY1 deficiency. The following applies: cited from earlier work. From the text:
For epileptic seizures in patients with NGLY1 deficiency, some approved drugs, including levetiracetam, valproate, lamotrigine, and clobazam, have been tested; however, their efficacies were limited.

Series [2] in a line: Oxytocin levels in plasma, brain and spinal cord 5 min after intranasal oxytocin (enzyme immunoassay). As to conditions: for Oxytocin level, Cortex, Mean / Oxytocin level, Hippocampus, Mean / Oxytocin level, Hypothalamus, Mean / Oxytocin level, Plasma, Mean / Oxytocin level, Spinal cord, Mean / Oxytocin level, Striatum, Mean / Oxytocin level, Thalamus, Mean: mean of n = 3; for Oxytocin level, Cortex, % of Control / Oxytocin level, Hippocampus, % of Control / Oxytocin level, Hypothalamus, % of Control / Oxytocin level, Spinal cord, % of Control / Oxytocin level, Striatum, % of Control / Oxytocin level, Thalamus, % of Control: mean, figure corresponds to % of the plasma 0 mg/kg mean; for Oxytocin level, Plasma, % of Control: mean as % of 0 mg/kg plasma mean. Format: in vivo, mouse. More on the design: Oxytocin level, Thalamus, Mean / Oxytocin level, Hypothalamus, Mean / Oxytocin level, Cortex, Mean / Oxytocin level, Spinal cord, Mean / Oxytocin level, Striatum, Mean / Oxytocin level, Hippocampus, Mean: unit not given here. As to the method:
Delivery of intranasal oxytocin to the central nervous system was confirmed using 17 to 18-week-old female Ngly1^−/− mice.
Fig. 5 Oxytocin levels in the plasma, brain, and spinal cord of Ngly1^−/− mice after intranasal administration of oxytocin. Oxytocin (10, 100 mg/kg) or saline was intranasally administered to female Ngly1^−/− mice (17 or 18-week-old) under anesthesia with 2.5% isoflurane (a). b Plasma, c hippocampus, d striatum, e cerebral cortex, f spinal cord, g thalamus, and h hypothalamus were collected 5 min after the single administration. Oxytocin levels were measured using enzyme immunoassay. Data represent mean + standard deviation and individual values (N = 3). […]
Oxytocin peptide (CAS number 50-56-6) was purchased from AA Blocks (San Diego, CA, USA) and dissolved in saline at a maximum concentration of 200 mg/mL. Female Ngly1^−/− mice were anesthetized with 2.5% isoflurane and intranasally administered with oxytocin using a manual pipette at a volume of 0.5 ml/kg. Oxytocin solutions were prepared in Protein LoBind Tubes (Eppendorf, Hamburg, Germany) just before the intranasal administration.

Series [3] has as its system school-age children (8–12 years old). As to conditions: 90 min and 24 h after a single intranasal administration; cited from earlier work. From the text: (§1) The safety of single or chronic intranasal oxytocin administration has been investigated in several clinical studies. […] Based on these clinical studies, oxytocin has the potential to be administered to patients with NG ...

Series [4] concerns generally healthy older men (55–95 years old). The following applies: chronic intranasal administration, twice daily for four weeks; cited from earlier work.
Source text: as §1

Setting [5] is: female Ngly1−/− mice, 17 to 18-week-old, 10 or 100 mg/kg single intranasal, 5 min after administration, enzyme immunoassay, N = 3, vs saline.

In the case of `CC[C@@H](C(N)=O)N1CCCC1=O` [levetiracetam], the “efficacy for epileptic seizures” value in series [1] is “limited”.
With `CC[C@H](C)[C@@H]1NC(=O)[C@H](Cc2ccc(O)cc2)NC(=O)[C@@H](N)CSSC[C@@H](C(=O)N2CCC[C@H]2C(=O)N[C@@H](CC(C)C)C(=O)NCC(N)=O)NC(=O)[C@H](CC(N)=O)NC(=O)[C@H](CCC(N)=O)NC1=O` [oxytocin, Oxytocin], in series [2] (10 mg/kg intranasal), the “Oxytocin level, Cortex, Mean” value amounted to 2.20; the “Oxytocin level, Cortex, % of Control” value came to 0.776%; the “Oxytocin level, Hippocampus, Mean” value worked out at 8.47; the “Oxytocin level, Hippocampus, % of Control” value was 3%. Besides, in series [2] (10 mg/kg intranasal), the “Oxytocin level, Hypothalamus, Mean” value turned out to be 87.40; the “Oxytocin level, Hypothalamus, % of Control” value worked out at 31%; the “Oxytocin level, Plasma, % of Control” value is given as 4479%; the “Oxytocin level, Plasma, Mean” value came out at 12705.67. Besides, in series [2] (10 mg/kg intranasal), the “Oxytocin level, Spinal cord, Mean” value is reported as 2.17; the “Oxytocin level, Spinal cord, % of Control” value was found to be 0.764%; the “Oxytocin level, Striatum, Mean” value is listed as 2.60; the “Oxytocin level, Striatum, % of Control” value came to 0.917%. Also, in series [2] (10 mg/kg intranasal), the “Oxytocin level, Thalamus, Mean” value came to 3.40 and the “Oxytocin level, Thalamus, % of Control” value is reported as 1.2%. In addition, in series [2] (100 mg/kg intranasal), the “Oxytocin level, Cortex, Mean” value is 15.07; the “Oxytocin level, Cortex, % of Control” value amounted to 5.31%; the “Oxytocin level, Hippocampus, Mean” value is 23.47; the “Oxytocin level, Hippocampus, % of Control” value was found to be 8%. In series [2] (100 mg/kg intranasal), the “Oxytocin level, Hypothalamus, Mean” value turned out to be 132.73; the “Oxytocin level, Hypothalamus, % of Control” value came out at 47%; the “Oxytocin level, Plasma, % of Control” value stood at 26235%; the “Oxytocin level, Plasma, Mean” value is reported as 74420.67. In series [2] (100 mg/kg intranasal), the “Oxytocin level, Spinal cord, Mean” value is 4.10; the “Oxytocin level, Spinal cord, % of Control” value amounted to 1.45%; the “Oxytocin level, Striatum, Mean” value is recorded as 24.23; the “Oxytocin level, Striatum, % of Control” value is recorded as 8.54%. Also, in series [2] (100 mg/kg intranasal), the “Oxytocin level, Thalamus, Mean” value was 42.47 and the “Oxytocin level, Thalamus, % of Control” value is reported as 15%. Further, in series [2] (setting [5]), the “increasing trend of oxytocin level in hypothalamus” value was “not observed”, the “oxytocin level in cerebral cortex” value is given as “increased”, the “oxytocin level in hippocampus” value is reported as “increased” and the “oxytocin level in plasma” value is given as “increased”. For the same compound, in series [2] (setting [5]), the “oxytocin level in spinal cord” value is “increased”, the “oxytocin level in striatum” value is recorded as “increased” and the “oxytocin level in thalamus” value was “increasing trend”. Also, in series [3], the side-effects entry is reported as “no side-effect”. For the same compound, the tolerability result in series [4] is “well-tolerated”.
Turning to `CN1C(=O)CC(=O)N(c2ccccc2)c2cc(Cl)ccc21` [clobazam], the “efficacy for epileptic seizures” value in series [1] is listed as “limited”.
As for `CCCC(CCC)C(=O)O` [valproate], the “efficacy for epileptic seizures” value in series [1] was “limited”.
Regarding `Nc1nnc(-c2cccc(Cl)c2Cl)c(N)n1` [lamotrigine], the “efficacy for epileptic seizures” value in series [1] is given as “limited”.
